Source: US20230203029A1 (priority 2020, published 2023)

Assays:
[1] = molecular target: T1, human MERTK cytoplasmic domain (Homo sapiens, UniProt Q12866); assay: biochemical; conditions: 30 uM ATP; read-out: Assay 1a Mer IC50 30 uM ATP
T1 construct: human MERTK cytoplasmic domain (Carna Biosciences 08-108); purchased Carna Biosciences 08-108
Method: Assay 1a—MERTK HTRF KinEASE-TK Assay
The enzymatic reaction was carried out for 30 min at room temperature. 10 μL TK Antibody-Cryptate/Streptavidin-XL665 (Cisbio 610SAXLG) was then added for 60 min, including EDTA containing detection buffer (Cisbio 62SDBRDF) to stop the reaction.

[2] = molecular target: T2, human AXL cytoplasmic domain (Homo sapiens, UniProt P30530); assay: Assay 1b AXL HTRF KinEASE-TK assay; format: biochemical
T2 construct: human AXL cytoplasmic domain (Thermo Fisher A31515); purchased Thermo Fisher A31515
T2 sequence (P30530 473-894 limits assumed): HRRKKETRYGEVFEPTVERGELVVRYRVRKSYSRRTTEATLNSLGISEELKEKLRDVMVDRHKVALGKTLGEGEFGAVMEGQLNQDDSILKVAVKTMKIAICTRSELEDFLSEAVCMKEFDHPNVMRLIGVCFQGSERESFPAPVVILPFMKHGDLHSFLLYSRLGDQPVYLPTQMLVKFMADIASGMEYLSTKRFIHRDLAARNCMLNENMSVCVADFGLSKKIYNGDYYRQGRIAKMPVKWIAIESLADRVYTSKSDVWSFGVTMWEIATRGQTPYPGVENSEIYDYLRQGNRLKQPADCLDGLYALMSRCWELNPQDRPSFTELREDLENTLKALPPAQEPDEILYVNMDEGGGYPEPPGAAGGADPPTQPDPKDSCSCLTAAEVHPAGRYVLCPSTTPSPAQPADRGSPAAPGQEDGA
Method: Assay 1b—AXL HTRF KinEASE-TK Assay
Compound inhibition of human AXL cytoplasmic domain (Thermo Fisher A31515) enzymatic activity was tested via the HTRF KinEASE-tyrosine kinase (TK) kit (Cisbio 62TK0PEC). Experiments were performed in 20 μl enzymatic buffer (Cisbio 62EZBFDD) supplemented with 5 mM MgCl2, 1 mM MnCl2, 1 mM DTT, 50 nM SEB (Cisbio, 61SEBALB), with 5 nM of AXL and the test compounds of interest. […] The enzymatic reaction was carried out for 30 min at room temperature. 10 μL TK Antibody-Cryptate/Streptavidin-XL665 (Cisbio 610SAXLG) was then added for 60 min, including EDTA containing detection buffer (Cisbio 62SDBRDF) to stop the reaction. The plate was read on a BMG Pherastar FSX using a HTRF 337/620/665 optical module to excite the terbium donor at 337 nm, and record donor emission at 620 nm and acceptor fluorophore emission at 665 nm. From this the FRET ratio (acceptor 665 nm/donor 620 nm) for each data point was calculated. […] Competition curves were then fit to a 4 parameter logistic equation including a variable slope factor to determine the IC50 (compound concentration that inhibits 50% of AXL activity).

[3] = molecular target: T3, Ba/F3 Pro B-cell line expressing TEL-human MERTK fusion domain (Homo sapiens, UniProt Q12866); format: cell-based; conditions: cell survival, 48 h, CellTiter-Glo; read-out: TEL-MERTK Ba/F3 IC50
T3 sequence (Q12866 587-858 limits assumed): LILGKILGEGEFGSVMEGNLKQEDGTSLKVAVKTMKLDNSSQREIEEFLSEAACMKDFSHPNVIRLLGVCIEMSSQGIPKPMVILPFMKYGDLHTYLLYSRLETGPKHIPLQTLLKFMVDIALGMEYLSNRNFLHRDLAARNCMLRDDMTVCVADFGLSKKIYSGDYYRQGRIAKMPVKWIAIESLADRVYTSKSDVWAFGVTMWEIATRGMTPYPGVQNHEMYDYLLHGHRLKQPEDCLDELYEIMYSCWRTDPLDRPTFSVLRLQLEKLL
Method: (§1) Assay 5—Ba/F3 Cell Survival Assays.
(§2) The inhibitory potencies of compounds were assessed in a Ba/F3 cell survival assay, using the Ba/F3 Pro B-cell line, recombinantly expressing a BCR-human AXL kinase domain fusion protein (pACD320/AXL, Advanced Cellular Dynamics Inc), TEL-human MERTK fusion domain (pACD1000/MERTK, Advanced Cellular Dynamics Inc), TEL-human Tyro3 fusion domain (pACD1000/TYRO3, Advanced Cellular Dynamics Inc), or control TEL-none (ACD320, Advanced Cellular Dynamics Inc) BRC-none constructs (ACD1000, Advanced Cellular Dynamics Inc). 10 ng/mL recombinant murine IL3 (R&D, 403-ML-010) was included in the media when propagating negative control TEL-none or BCR-none lines only. […] The final assay DMSO concentration was 0.25%. Compound incubations were conducted for 48 h at 37° C./5% CO2, after which cell plate was equilibrated at room temperature for 20 minutes prior to assessing viability. 15 μl of Promega CellTiter-Glo reagent (G7572) was added to each well for 2 min on an orbital shaker to induce cell lysis.
(§3) The plate was then equilibrated for 5 min at room temperature and luminescence read on a BMG Pherastar FSX using the LUM plus optic module. […] Competition curves were then fit to a 4 parameter logistic equation including a variable slope factor to determine the IC50 (compound concentration causing a half-maximal inhibition of cell survival).

[4] = molecular target: T4, Ba/F3 Pro B-cell line expressing BCR-human AXL kinase domain fusion protein (Homo sapiens, UniProt P30530); assay: Assay 5 Ba/F3 cell survival assay, BCR-Axl; format: cell-based; conditions: read-out: BCR-Axl Ba/F3 IC50, 48 h, CellTiter-Glo
T4 construct: P11274 (Breakpoint cluster region protein)
T4 sequence (P30530 536-807 limits assumed): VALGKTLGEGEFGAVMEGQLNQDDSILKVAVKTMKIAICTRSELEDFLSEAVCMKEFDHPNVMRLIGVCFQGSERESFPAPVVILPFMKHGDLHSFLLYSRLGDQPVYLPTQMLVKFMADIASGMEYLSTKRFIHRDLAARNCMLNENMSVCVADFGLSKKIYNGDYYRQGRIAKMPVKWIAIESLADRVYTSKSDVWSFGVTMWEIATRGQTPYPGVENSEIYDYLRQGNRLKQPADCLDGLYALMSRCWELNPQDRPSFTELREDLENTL
Method: as §1, §2, §3

[5] = molecular target: T5, Ba/F3 Pro B-cell line expressing TEL-human Tyro3 fusion domain (Homo sapiens, UniProt Q06418); format: cell-based; conditions: cell survival, 48 h, CellTiter-Glo
T5 sequence (Q06418 518-790 limits assumed): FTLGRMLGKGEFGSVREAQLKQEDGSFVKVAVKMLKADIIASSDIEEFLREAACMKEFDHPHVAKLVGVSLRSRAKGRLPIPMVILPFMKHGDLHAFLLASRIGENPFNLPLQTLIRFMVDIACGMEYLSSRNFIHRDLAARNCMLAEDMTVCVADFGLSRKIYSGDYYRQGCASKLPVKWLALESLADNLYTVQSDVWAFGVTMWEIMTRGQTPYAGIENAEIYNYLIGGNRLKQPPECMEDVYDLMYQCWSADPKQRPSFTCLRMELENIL
Method: as §1
as §2, with “only. Cells were maintained in RMPI 1640 (Corning 15-040-CV) culture media containing 10% heat inactivated semi-synthetic FBS (RMBIO FGR-BBT), 2 mM L-Glutamine (Sigma, G7513), 100 IU/mL Penicillin-[…] Streptomycin (Sigma, P4333), and 500 ng/mL Puromycin (Sigma, P8833). Experiments were performed in 50 μl growth media, including the test compounds of interest, and dispensing 5000 cells/well in logarithmic-phase growth into a 384 well white Optiplate (Perkin Elmer 6007299).” for “only.”
The plate was then equilibrated for 5 min at room temperature and luminescence read on a BMG Pherastar FSX using the LUM plus optic module. Data were normalised to measurements in the absence of competing compound (0% inhibition). Competition curves were then fit to a 4 parameter logistic equation including a variable slope factor to determine the IC50 (compound concentration causing a half-maximal inhibition of cell survival).

T1 sequence (Q12866 527-999): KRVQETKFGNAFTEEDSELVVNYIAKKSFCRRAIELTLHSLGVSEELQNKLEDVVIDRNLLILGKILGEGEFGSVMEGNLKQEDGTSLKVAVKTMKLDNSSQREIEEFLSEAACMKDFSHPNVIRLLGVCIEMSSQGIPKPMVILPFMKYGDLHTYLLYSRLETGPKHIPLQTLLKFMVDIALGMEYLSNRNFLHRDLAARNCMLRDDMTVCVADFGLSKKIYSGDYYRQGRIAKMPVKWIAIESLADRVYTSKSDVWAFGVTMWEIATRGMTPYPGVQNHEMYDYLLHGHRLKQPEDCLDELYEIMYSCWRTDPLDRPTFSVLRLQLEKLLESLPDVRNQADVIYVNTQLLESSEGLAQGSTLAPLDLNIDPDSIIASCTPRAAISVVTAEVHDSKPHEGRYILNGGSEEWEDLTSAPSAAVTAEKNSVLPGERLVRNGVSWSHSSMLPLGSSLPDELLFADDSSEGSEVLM

IC50 [1] | IC50 [2] | Compound | IC50 [3] | IC50 [4] | IC50 [5]
0.005 µM | 0.029 µM | O=C(Nc1ccc(Oc2ccnc3cnc(N4CCNCC4)cc23)cn1)c1cccn(-c2ccc(F)cc2)c1=O [Example 10, 1-(4-fluorophenyl)-2-oxo-N-[5-[(6-piperazin-1-yl-1,7-naphthyridin-4-yl)oxy]-2-pyridyl]pyridine-3-carboxamide] | 0.024 µM | 0.028 µM | 0.148 µM
0.013 µM | 0.282 µM | CC(C)(C)OC(=O)N1CCC(c2cc3c(Oc4ccc(NC(=O)c5cccn(-c6ccc(F)cc6)c5=O)nc4)ccnc3cn2)CC1 [Example 16.4, tert-butyl 4-[4-[[6-[[1-(4-fluorophenyl)-2-oxo-pyridine-3-carbonyl]amino]-3-pyridyl]oxy]-1,7-naphthyridin-6-yl]piperidine-1-carboxylate] | 0.195 µM | 0.154 µM | > 2.5 µM
0.014 µM | – | CC(C)n1cc(C(=O)Nc2ccc(Oc3ccnc4cnc(C(=O)N[C@H]5CCN(C)C5)cc34)cn2)c(=O)n(-c2ccc(F)cc2)c1=O [Example 27.4, 4-[[6-[[3-(4-fluorophenyl)-1-isopropyl-2,4-dioxo-pyrimidine-5-carbonyl]amino]-3-pyridyl]oxy]-N-[(3S)-1-methylpyrrolidin-3-yl]-1,7-naphthyridine-6-carboxamide] | 0.044 µM | 0.014 µM | 0.377 µM
0.004 µM | 0.06 µM | CN1CCN(c2cc3c(Oc4ccc(NC(=O)c5cccn(-c6ccc(F)cc6)c5=O)cc4)ccnc3cn2)CC1 [Example 35, 1-(4-fluorophenyl)-N-[4-[[6-(4-methylpiperazin-1-yl)-1,7-naphthyridin-4-yl]oxy]phenyl]-2-oxo-pyridine-3-carboxamide] | 0.014 µM | 0.008 µM | 0.116 µM
0.003 µM | 0.005 µM | CC(C)n1cc(C(=O)Nc2ccc(Oc3ccnc4cnc(N5CCNCC5)cc34)cc2)c(=O)n(-c2ccc(F)cc2)c1=O [Example 12.5, 3-(4-fluorophenyl)-1-isopropyl-2,4-dioxo-N-[4-[(6-piperazin-1-yl-1,7-naphthyridin-4-yl)oxy]phenyl]pyrimidine-5-carboxamide] | 0.038 µM | 0.005 µM | 0.428 µM
0.057 µM | 0.247 µM | O=C(Nc1ccc(Oc2ccnc3cnc(C4CCNC4)cc23)cn1)c1cccn(-c2ccc(F)cc2)c1=O (centres unmarked) [Example 21, 1-(4-fluorophenyl)-2-oxo-N-[5-[(6-pyrrolidin-3-yl-1,7-naphthyridin-4-yl)oxy]-2-pyridyl]pyridine-3-carboxamide] | 0.217 µM | 0.203 µM | 2.39 µM
0.002 µM | 0.034 µM | CN1CCC(C(=O)Nc2cc3c(Oc4ccc(NC(=O)c5cccn(-c6ccc(F)cc6)c5=O)nc4)ccnc3cn2)C1 (centres unmarked) [Example 18, 1-(4-Fluorophenyl)-N-[5-[[6-[(1-methylpyrrolidine-3-carbonyl)amino]-1,7-naphthyridin-4-yl]oxy]-2-pyridyl]-2-oxo-pyridine-3-carboxamide] | 0.003 µM | – | 0.165 µM
0.001 µM | 0.003 µM | O=C(Nc1ccc(Oc2ccnc3cnc(C4CCN(C5COC5)CC4)cc23)cn1)c1cccn(-c2ccc(F)cc2)c1=O [Example 16.3, 1-(4-fluorophenyl)-N-[5-[[6-[1-(oxetan-3-yl)-4-piperidyl]-1,7-naphthyridin-4-yl]oxy]-2-pyridyl]-2-oxo-pyridine-3-carboxamide] | 0.014 µM | – | 0.271 µM
0.003 µM | 0.012 µM | CC(C)n1cc(C(=O)Nc2ccc(Oc3ccnc4cnc(C5CCN(C)CC5)cc34)cn2)c(=O)c(-c2ccc(F)cc2)c1 [Example 23, 5-(4-fluorophenyl)-1-isopropyl-N-[5-[[6-(1-methyl-4-piperidyl)-1,7-naphthyridin-4-yl]oxy]-2-pyridyl]-4-oxo-pyridine-3-carboxamide] | 0.002 µM | – | 0.429 µM
